Read-outs that look alike come from different tables or passages of the source.
What was measured:
[1] = system: alkaline phosphatase (ALP); settings: for Fluo. Z Score: SAR of library and proprietary analogs, AttoPhos assay; for RFU Score Threshold ≥ 800 / Fluorescence Z Score Threshold ≥ 10 / NPA Score Threshold ≥ 5.0 (normalized percent activation): primary screen, C2C12, 4 days; for RFU Score Threshold ≥ 800 / Fluorescence Z Score Threshold ≥ 10 / RFU Score (10 μM) / NPA Score Threshold ≥ 5.0 (normalized percent activation): 10 μM; for RFU Score Threshold ≥ 800: Ex 450/Em 580 nm, rank in brackets not taken; for Fluorescence Z Score Threshold ≥ 10: Z score on DMSO control wells; for RFU Score (10 μM): 154-analog library, C2C12, duplicate; for NPA Score Threshold ≥ 5.0 (normalized percent activation): normalized against rhBMP4 positive and DMSO negative controls
Description: (§1) To identify small-molecule activators of osteoblast differentiation, we measured ALP activity using a fluorescent emission assay as a reporter for enzymatic digestion of ALP substrate in lysates derived from C2C12 myoblasts. […] Therefore, before screening, the assay was calibrated using recombinant human BMP4 protein as a positive control. Compounds were robotically deposited onto 384-well plates and then overlaid by C2C12 cells for a 4-day culture period, followed by lysis and fluorescent substrate assays (FIG. 1A; Table 1). To ensure uniformity, C2C12 cells were maintained in normal culture medium containing 10% fetal bovine serum, and lysis and substrate addition achieved using a microplate multidrop device. The primary screen (Table 2) encompassed greater than 47,000 small molecules tested at a final concentration of 10 μM.
(§2) For the primary screen, library compounds were distributed onto 384-well microplates (Greiner Bio-One 781091) at a final concentration of 10 μM in culture medium using a Perkin Elmer Janus automated workstation and WinPrep Version 4.8.3.315. Positive (rhBMP4, 1 ng/ml, R&D Systems) and negative controls (DMSO, 0.2%) were manually added to each plate by multichannel pipet. C2C12 cells were seeded onto compounds and controls at a density of 2000/well using a Thermo Multidrop Combi reagent dispenser and cultured for 4 days at 37° C., 5% CO2. Culture medium was aspirated using a BioTek EL406 plate washer and cells were lysed in RIPA buffer (Millipore 20-188) at ambient temperature for 10 minutes. 10 μl fluorescent alkaline phosphatase substrate (AttoPhos, Promega S1000) was added to lysates and incubated an additional 10 minutes before measuring the fluorescence (Excitation 450 nm/Emission 580 nm) on a BioTek Synergy Neo2 stacking microplate reader. Plates were processed and relative fluorescence raw values measured in stacks of 10-20. The data were processed using Collaborative Drug Discovery web-based software (CDD Vault) to determine Z score calculated on DMSO control wells and percent activation normalized against positive and negative controls (NPA). Cherry-picked hit candidates were re-tested in concentration response experiments, from which 4 candidates were chosen and purchased for further testing from either ChemBridge or Enamine, based on availability.
(§3) We also purchased a library of 154 structural chemical analogs assembled by ChemBridge Corp. from available screening library compounds.

[2] = system: alkaline phosphatase (ALP); experiment: cells; settings: Mus musculus; for activation at 10 µM: C2C12, 96 h
Description: as §1, §2, §3

[3] = read-out: NPA Score Threshold ≥ 5.0 (normalized percent activation)

| Compound | RFU Score Threshold ≥ 800 [1] | Fluorescence Z Score Threshold ≥ 10 [1] | activation at 10 µM [2, 3] [%] | RFU Score (10 μM) [1] | activation at 10 µM [2] [%] | other results |
| --- | --- | --- | --- | --- | --- | --- |
| O=C(Nc1ccc(O)cc1)c1cc2cc(Cl)ccc2[nH]c1=O [BT351] |  |  |  |  |  | Fluo. Z Score ([1]; C2C12): 1.48 ± 1.26; EC50 ([2]; C2C12): 20.9 µM |
| CC1(C)OB(c2c(C(=O)O)c(=O)[nH]c3ccc(Cl)cc23)OC1(C)C [BT353] |  |  |  |  |  | Fluo. Z Score ([1]; C2C12): 3.15 ± 0.34; EC50 ([2]; C2C12): 5.31 µM |
| CC(C)N1CCC(SCc2ccc(F)cc2C#N)C1=O (stereo not drawn) [RU-0201425] | Below Threshold | Below Threshold | 5.69 |  |  |  |
| O=C(NC1CCN(c2ccc(F)cc2)CC1)N(CC1CCOC1)C1CC1 (stereo not drawn) [RU-0219256] | Below Threshold | Below Threshold | 5.69 |  |  |  |
| CCCN(C)CC1CCN(C(C)C(=O)Nc2ccc(C(F)(F)F)cc2)C1 (stereo not drawn) [RU-0219355] | 819 (28) | Below Threshold | 6.14 |  |  |  |
| Cc1cc(C)c2[nH]c(=O)c(-c3c(-c4ccccc4)ncn3CCCO)cc2c1 [RU-0220396] |  |  |  |  |  | Fluo. Z Score ([1]; C2C12): −0.3 ± 0.20; EC50 ([2]; C2C12): 2.63 µM |
| CO[C@H]1CN(Cc2cccc(Cl)c2Cl)CC[C@H]1N [RU-0221236] | Below Threshold | Below Threshold | 5.13 |  |  |  |
| O=C(NC1CC1)C1CCCN(C2CCN(c3ccc(C(F)(F)F)cn3)CC2)C1 (stereo not drawn) [RU-0221613] | Below Threshold | Below Threshold | 5 |  |  |  |
| c1ccc(-c2nc[nH]c2-c2ccccc2Cn2cccn2)cc1 [RU-0222072] |  |  |  | 425 | 5.05 |  |
| CC(C)c1nnc(CN2C[C@H]3CC=CC[C@H]3C2)o1 [RU-0223925] | 1120 (6) | 18.94 (8) | 11.2 |  |  |  |
| Cc1c(-c2ccccc2F)[nH]c2ccc(CNS(=O)(=O)N3CCCC3)cc12 [RU-0225107] | 805 (34) | Below Threshold | 5.07 |  |  |  |
| Cc1cc(C)c2[nH]c(=O)c(CN3CCC4(CCCNC4)C3)cc2c1 (stereo not drawn) [RU-0227342] |  |  |  | 591 | 11 |  |
| Cc1cc(C)c2[nH]c(=O)c(CN3CCC4(CCOCC4)CC3)cc2c1 [RU-0227345] |  |  |  | 384 | 3.6 |  |
| CC(=O)NCCC1CCCCN1Cc1cc2cc(C)cc(C)c2[nH]c1=O (stereo not drawn) [RU-0227648] |  |  |  | 494 | 7.48 |  |
| O=C(c1[nH]cnc1-c1ccccc1)N1CC[C@H](CO)[C@H](O)C1 [RU-0227868] |  |  |  | 505 | 7.88 |  |
| Cc1cc(C)c2[nH]c(=O)c(CN3CCOC(CN)C3)cc2c1 (stereo not drawn) [RU-0228809] |  |  |  | 341 | 1.81 |  |
| CC1CCN(C(=O)COc2ccccc2-c2[nH]cnc2-c2ccccc2)CC1 [RU-0228904] |  |  |  | 590 | 10.9 |  |
| OCc1ccc(CN2CCCC(COc3ccccc3F)C2)o1 (stereo not drawn) [RU-0229103] | 1980 (2) | 46.85 (2) | 6.82 |  |  |  |
| CN(C)CCC1CN(C(=O)c2[nH]cnc2-c2ccccc2)CCO1 (stereo not drawn) [RU-0231240] |  |  |  | 596 | 11.1 |  |
| COc1ccc(-c2[nH]cnc2-c2ccccc2)cc1CN(C)C [RU-0231652] |  |  |  | 299 | 0.62 |  |
| Cc1ccccc1OCCCN(C)c1nc(-c2cccnc2)nc2c1CNC2 [RU-0231961] | Below Threshold | Below Threshold | 5.5 |  |  |  |
| c1ccc(-c2nc[nH]c2-c2cccc(CN3CCOCC3)c2)cc1 [RU-0232369] |  |  |  | 294 | 0.43 |  |
| O=C(c1[nH]cnc1-c1ccccc1)N1CCCC(Nc2ccc(F)cc2)C1 (stereo not drawn) [RU-0236307] |  |  |  | 473 | 6.76 |  |
| Cc1cc(C)n(CC(C)Nc2nc(-c3ccncc3)nc3c2CNC3)n1 (stereo not drawn) [RU-0236897] | Below Threshold | Below Threshold | 5.32 |  |  |  |
| CCc1ncc2c(n1)CN(C(=O)c1[nH]cnc1-c1ccccc1)C2 [RU-0237095] |  |  |  | 453 | 6.04 |  |
| COc1ccc(-c2n[nH]cc2-c2[nH]cnc2-c2ccccc2)cc1 [RU-0237450] |  |  |  | 466 | 6.49 |  |
| CCc1cnc(C)nc1N1CCCC(Cc2cccnc2)C1 (stereo not drawn) [RU-0238003, 5-ethyl-2-methyl-4-[3-(pyridin-3-ylmethyl)piperidin-1-yl]pyrimidine] | 1340 (3) | 36.44 (3) |  |  |  | NPA Score Threshold ≥ 5.0 (normalized percent activation) [1]: Below Threshold; EC50 ([2]; C2C12, read-out: Measured EC50): > 40 µM |

| Compound | RFU Score Threshold ≥ 800 [1] | Fluorescence Z Score Threshold ≥ 10 [1] | activation at 10 µM [2, 3] [%] | RFU Score (10 μM) [1] | activation at 10 µM [2] [%] | other results |
| --- | --- | --- | --- | --- | --- | --- |
| Cc1ccc(-n2cc(CN3CCCC(Cn4ccnc4C)C3)cn2)cc1C (stereo not drawn) [RU-0238394] | 914 (15) | 12.45 (19) | 5.54 |  |  |  |
| Cc1cc(C)c2[nH]c(=O)c(CN3CCN4CCN(C)CC4C3)cc2c1 (stereo not drawn) [RU-0238998] |  |  |  | 469 | 6.62 |  |
| COc1cc(OC)c(-c2[nH]cnc2-c2ccccc2)c(OC)c1 [RU-0239439] |  |  |  | 472 | 6.72 |  |
| Cc1nc2cc(-c3cccc4ccnn34)ccc2s1 [RU-0239646] | Below Threshold | Below Threshold | 5.22 |  |  |  |
| CCCC(C)c1nnc(NC(=O)c2ccccc2-n2cncn2)s1 (stereo not drawn) [RU-0242581] | 849 (24) | Below Threshold | 5.51 |  |  |  |
| CN(C)CCNc1cc(-c2ccc(Cl)cc2F)c2cc[nH]c2n1 [RU-0242925] | Below Threshold | Below Threshold | 5.73 |  |  |  |
| Cc1nc2cc(C(=O)N3CCNC(=O)C3)ccc2s1 [RU-0243566] | Below Threshold | Below Threshold | 5.55 |  |  |  |
| Cc1ccc(OCCN(C)Cc2ccncc2)c(C)c1 [RU-0244443] | 818 (29) | Below Threshold |  |  |  | NPA Score Threshold ≥ 5.0 (normalized percent activation) [1]: Below Threshold |
| O=C(N[C@H]1CN[C@H](C(=O)NCCCn2ccnc2)C1)c1cccc(Cl)c1 [RU-0245007] | 993 (12) | 14.31 (17) |  |  |  | NPA Score Threshold ≥ 5.0 (normalized percent activation) [1]: Below Threshold |
| CN1CC2(CCCN(C(=O)c3[nH]cnc3-c3ccccc3)CC2)OC1=O (stereo not drawn) [RU-0245926] |  |  |  | 558 | 9.73 |  |
| c1ccc(CC2CCN(Cc3cc4n(n3)CCCNC4)C2)cc1 (stereo not drawn) [RU-0246723] | 873 (20) | 10.91 (23) |  |  |  | NPA Score Threshold ≥ 5.0 (normalized percent activation) [1]: Below Threshold |
| COc1cccc(-c2[nH]cnc2-c2ccccc2)c1OCCN(C)C [RU-0247047] |  |  |  | 558 | 9.73 |  |
| C=CCc1cc(-c2[nH]cnc2-c2ccccc2)cc(OC)c1O [RU-0248392] |  |  |  | 423 | 4.98 |  |
| CN(C)CC1(O)CCN(C(=O)c2[nH]cnc2-c2ccccc2)C1 (stereo not drawn) [RU-0248829] |  |  |  | 325 | 1.52 |  |
| c1ccc(-c2nc[nH]c2-c2ccccc2OCCCN2CCOCC2)cc1 [RU-0248967] |  |  |  | 512 | 7.58 |  |
| CN1CCC(Cc2noc(-c3[nH]cnc3-c3ccccc3)n2)CC1 [RU-0249023] |  |  |  | 293 | 0.4 |  |
| c1ccc(-c2nc[nH]c2-c2ccc(OCCn3ccnc3)cc2)cc1 [RU-0249817] |  |  |  | 561 | 9.84 |  |
| O=C(CCc1n[nH]c2c1CCCC2)N1CCC2(CCCO2)CC1 [RU-0250369] | Below Threshold | Below Threshold | 5.46 |  |  |  |
| Cc1nc(CCN)cc(N2CCCC2c2nonc2C)n1 (stereo not drawn) [RU-0250475] | 879 (19) | Below Threshold |  |  |  | NPA Score Threshold ≥ 5.0 (normalized percent activation) [1]: Below Threshold |
| CN(Cc1cccc2ncccc12)CC1CCOC1 (stereo not drawn) [RU-0252111] | 1010 (10) | 16.48 (12) |  |  |  | NPA Score Threshold ≥ 5.0 (normalized percent activation) [1]: Below Threshold |
| O=C(NC1CC(=O)N(CCc2ccccc2)C1)c1[nH]cnc1-c1ccccc1 (stereo not drawn) [RU-0252250] |  |  |  | 533 | 8.85 |  |
| CCCc1nc(C)c(CNC(=O)C2CCOC2)s1 (stereo not drawn) [RU-0254439] | Below Threshold | 14.37 (16) |  |  |  | NPA Score Threshold ≥ 5.0 (normalized percent activation) [1]: Below Threshold |
| CCOC(=O)c1n[nH]cc1[C@@H]1C[C@H](NC(C)=O)C[C@H](CC(C)C)O1 [RU-0257787] | Below Threshold | 12.09 (21) |  |  |  | NPA Score Threshold ≥ 5.0 (normalized percent activation) [1]: Below Threshold |
| Cc1cccc(-c2ncc(CN3CCCC(Cn4ccnc4C)C3)cn2)c1 (stereo not drawn) [RU-0261573] | 857 (21) | 10.31 (24) |  |  |  | NPA Score Threshold ≥ 5.0 (normalized percent activation) [1]: Below Threshold |
| CCNC(=O)N1CCc2c(cnc(C)c2-c2noc(-c3ccc(C)cc3)n2)C1 [RU-0265172] | 840 (25) | 18.70 (9) |  |  |  | NPA Score Threshold ≥ 5.0 (normalized percent activation) [1]: Below Threshold |
| N-(3-isoquinolin-5-ylbenzyl)propanamide [RU-0248250] | 1000 (11) | 24.29 (5) |  |  |  | NPA Score Threshold ≥ 5.0 (normalized percent activation) [1]: Below Threshold; EC50 ([1]; read-out: Measured EC50, compounds validated in secondary screen, C2C12): > 40 µM |
